{
  "source": "PubChem BioAssay AID608",
  "about": "(Sanford-Burnham Center for Chemical Genomics, 2007)",
  "note": "Calls of active or inactive are those of the source. The rule behind the calls is not given here.",
  "data": [
    {"molecular_target": "Peptidyl-prolyl cis-trans isomerase FKBP1A (Homo sapiens) (UniProt P62942)", "sequence (P62942 whole entry, looked up)": "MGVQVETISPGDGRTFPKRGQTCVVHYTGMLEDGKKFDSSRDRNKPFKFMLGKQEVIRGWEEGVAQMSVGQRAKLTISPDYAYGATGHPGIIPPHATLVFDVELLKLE", "assay": "small-molecule binding to FKBP12 – biophysical, NMR detection (AID 608)", "settings": "purified FKBP12", "values": [
      {"smiles": "CCC(C)C(=O)c1c(O)c(C)c2oc3c(C)c(O)c(C(=O)C(C)CC)c(O)c3c2c1O", "note": "(stereo unspecified)", "Kd": "> 4 mM (inactive)"},
      {"smiles": "Cn1cc(C(=O)N/N=C/c2ccccc2)ccc1=O", "Kd": "> 4 mM (inactive)"},
      {"smiles": "CC(=O)Oc1cc(OC(C)=O)c2c(c1)O[C@H](c1ccc(OC(C)=O)c(OC(C)=O)c1)[C@H](OC(C)=O)C2", "Kd": "> 4 mM (inactive)"},
      {"smiles": "O=C1CSC(=O)N1c1cccc(O)c1", "Kd": "> 4 mM (inactive)"},
      {"smiles": "O=C(O)Cc1n[nH]c(=O)c2ccccc12", "Kd": "> 4 mM (inactive)"},
      {"smiles": "COc1cccc(OC)c1C(=O)N1CCOCC1", "Kd": "> 4 mM (inactive)"},
      {"smiles": "Nc1ncccc1OCc1ccccc1", "Kd": "> 4 mM (inactive)"},
      {"smiles": "O=C(c1sc2cc([N+](=O)[O-])ccc2c1Cl)N1CCOCC1", "Kd": "inactive"},
      {"smiles": "C=C1C([C@]2(C)C(CC(=O)OC)[C@@](C)(COC(C)=O)OC(=O)C[C@@H]2OC(C)=O)[C@@H](OC=O)[C@H](OC(=O)C(O)C(C)CC)[C@@]2(C)[C@H](c3ccoc3)CC(=O)C12O", "note": "(stereo partly specified)", "Kd": "> 4 mM (inactive)"},
      {"smiles": "NC(=O)c1ccsc1NC(=O)c1ccco1", "Kd": "> 4 mM (inactive)"},
      {"smiles": "Nc1ccccc1C(=O)CC(N)C(=O)O", "note": "(stereo unspecified)", "Kd": "> 4 mM (inactive)"},
      {"smiles": "CCOC(=O)CNc1ncnc2c1nnn2CC", "Kd": "> 4 mM (inactive)"},
      {"smiles": "CN1CCN(C(=S)c2ccc(N(C)C)cc2)CC1", "Kd": "> 4 mM (inactive)"},
      {"smiles": "CCC1C(=O)OCC1Cc1cncn1C", "note": "(stereo unspecified)", "Kd": "> 4 mM (inactive)"},
      {"smiles": "CNc1ccccc1C(=O)O", "Kd": "> 4 mM (inactive)"},
      {"smiles": "O=C(Nc1ccc2c(c1)OCO2)c1c(F)cccc1F", "Kd": "> 4 mM (inactive)"},
      {"smiles": "N#CCSc1nnc2ccc3ccccc3n12", "Kd": "> 4 mM (inactive)"},
      {"smiles": "CC(=O)c1c(C)nc2ccccc2c1N", "Kd": "> 4 mM (inactive)"},
      {"smiles": "COc1cc([C@@H]2c3cc4c(cc3[C@H](OC(C)=O)[C@H]3COC(=O)[C@H]23)OCO4)cc(OC)c1OC", "Kd": "> 4 mM (inactive)"},
      {"smiles": "OCCNc1nc2ccc(Cl)cc2[nH]1", "Kd": "> 4 mM (inactive)"},
      {"smiles": "NC1=NC(=O)/C(=C/c2cccc([N+](=O)[O-])c2)S1", "Kd": "> 4 mM (inactive)"},
      {"smiles": "CNc1nc(SC)nc(N2CCOCC2)n1", "Kd": "> 4 mM (inactive)"},
      {"smiles": "O=C(Nc1nnc(-c2cccnc2)o1)c1ccccc1F", "Kd": "> 4 mM (inactive)"},
      {"smiles": "O=c1[nH]cc(Nc2ccccc2)c(=O)[nH]1", "Kd": "> 4 mM (inactive)"},
      {"smiles": "c1cnc(N2CCNCC2)nc1", "Kd": "> 4 mM (inactive)"},
      {"smiles": "Cc1noc(C)c1C(=O)N1CCc2ccccc2C1", "Kd": "> 4 mM (inactive)"},
      {"smiles": "NC(=O)CC[C@H](N)C(=O)O", "Kd": "> 4 mM (inactive)"},
      {"smiles": "CSc1nnc(-c2ccccc2NC(C)=O)o1", "Kd": "> 4 mM (inactive)"},
      {"smiles": "COC(=O)c1sc(N)nc1C", "Kd": "> 4 mM (inactive)"},
      {"smiles": "CCSc1nnc2[nH]c(=O)cc(C)n12", "Kd": "> 4 mM (inactive)"},
      {"smiles": "C/C=C(\\C)C(=O)OC1[C@@H]2C=C3C(CC[C@]4(C)C3CC(=O)O[C@H]4c3ccoc3)C(C)(C2=O)[C@@H](C(O)C(=O)OC)C1(C)C", "note": "(stereo partly specified)", "Kd": "> 4 mM (inactive)"},
      {"smiles": "O=C(O)CC1C(=O)NCCN1Cc1cccs1", "note": "(stereo unspecified)", "Kd": "> 4 mM (inactive)"},
      {"smiles": "CCCc1ncc(C(O)c2cccc3ccccc23)n1C", "note": "(stereo unspecified)", "Kd": "> 4 mM (inactive)"},
      {"smiles": "CCCCCCCCCCCCCCCCCCOCC(O)CO", "note": "(stereo unspecified)", "Kd": "> 4 mM (inactive)"},
      {"smiles": "CC(=O)O[C@@H]1c2c(ccc3ccc(=O)oc23)OC(C)(C)[C@@H]1OC(=O)CC(C)C", "Kd": "> 4 mM (inactive)"},
      {"smiles": "O=C(CS(=O)(=O)c1ccccc1)N1CCCCCC1", "Kd": "> 4 mM (inactive)"},
      {"smiles": "COc1cc(S(=O)(=O)Nc2cccnc2)ccc1F", "Kd": "> 4 mM (inactive)"},
      {"smiles": "Cn1c(=O)n(CC(=O)Nc2cccnc2)c2ccccc21", "Kd": "> 4 mM (inactive)"},
      {"smiles": "CC(C)=CCc1c(O)cc2occ(-c3ccc4c(c3)OCO4)c(=O)c2c1O", "Kd": "> 4 mM (inactive)"},
      {"smiles": "O=C(O)c1cnc2sc3ccccc3n2c1=O", "Kd": "> 4 mM (inactive)"},
      {"smiles": "O=c1c(O)c(-c2ccc(O)cc2O)oc2cc(O)cc(O)c12", "Kd": "> 4 mM (inactive)"},
      {"smiles": "COC(=O)c1ccc2nccnc2c1", "Kd": "> 4 mM (inactive)"},
      {"smiles": "COC(=O)c1cncn1C", "Kd": "> 4 mM (inactive)"},
      {"smiles": "CC(=O)OCC(=O)[C@@]1(O)CCC2C3CC[C@@H]4C[C@H](OC(C)=O)CC[C@]4(C)C3C(=O)C[C@@]21C", "note": "(stereo partly specified)", "Kd": "> 4 mM (inactive)"},
      {"smiles": "Cc1cccc(OCc2nnc(N)s2)c1", "Kd": "> 4 mM (inactive)"},
      {"smiles": "COc1cccc(Oc2ccc(N)cc2)c1", "Kd": "> 4 mM (inactive)"},
      {"smiles": "COc1ccccc1-c1nc(-c2ccc(C)nc2OC)no1", "Kd": "> 4 mM (inactive)"},
      {"smiles": "COC(=O)c1cc(-c2c(C)nn(-c3ccccc3)c2C)n[nH]1", "Kd": "> 4 mM (inactive)"},
      {"smiles": "Cc1cc(C(=O)N2CCN(c3ncccn3)CC2)c(C)o1", "Kd": "> 4 mM (inactive)"},
      {"smiles": "COc1cccc2c(=O)n(CC(N)=O)ccc12", "Kd": "> 4 mM (inactive)"},
      {"smiles": "Nc1nc2ccc(C(=O)O)cc2s1", "Kd": "> 4 mM (inactive)"},
      {"smiles": "CC(=O)O[C@@H]1CC2C(C)(C)[C@H](O)C=C[C@]2(C)C2CC[C@]3(C)C(=CC(=O)O[C@H]3c3ccoc3)[C@@]21C", "note": "(stereo partly specified)", "Kd": "> 4 mM (inactive)"},
      {"smiles": "O=C(O)c1cn(-c2ccccc2)nc1-c1cccnc1", "Kd": "> 4 mM (inactive)"},
      {"smiles": "CCCn1cnc2sc(C(N)=O)c(C)c2c1=O", "Kd": "> 4 mM (inactive)"},
      {"smiles": "OCC1Cc2ccccc2CN1", "note": "(stereo unspecified)", "Kd": "> 4 mM (inactive)"},
      {"smiles": "CC1CCCN(C/C(O)=C(\\C#N)c2nc3ccccc3[nH]2)C1", "note": "(stereo unspecified)", "Kd": "> 4 mM (inactive)"},
      {"smiles": "O=C(c1ccccc1)c1ccccc1C(=O)N1CCOCC1", "Kd": "> 4 mM (inactive)"},
      {"smiles": "CNC(=S)N1CCN=C1Nc1nc(C)cc(C)n1", "Kd": "> 4 mM (inactive)"},
      {"smiles": "Cc1ccc(S(=O)(=O)CC(=O)N2CCOCC2)cc1", "Kd": "0.095 mM"},
      {"smiles": "CC1=NN2C(=N)CC(=O)N=C2S1", "Kd": "> 4 mM (inactive)"},
      {"smiles": "O=C(O)CCN1CCc2ccccc2C1c1ccncc1", "note": "(stereo unspecified)", "Kd": "> 4 mM (inactive)"},
      {"smiles": "Cn1nnc2c(Cl)ncnc21", "Kd": "> 4 mM (inactive)"},
      {"smiles": "Nc1ccc(C2SCCS2)cc1", "Kd": "> 4 mM (inactive)"},
      {"smiles": "COC(=O)C[C@@H]1C2(C)C(=O)[C@@H](CC3=C4CC(O)O[C@@H](c5ccoc5)[C@]4(C)CCC32)[C@H](O)C1(C)C", "note": "(stereo partly specified)", "Kd": "> 4 mM (inactive)"},
      {"smiles": "COc1ccc(C2CC(=O)NN2)cc1OC1CCCC1", "note": "(stereo unspecified)", "Kd": "> 4 mM (inactive)"},
      {"smiles": "CC(C)CCCC(C)[C@H]1CCC2C3CC=C4C[C@@H](O)CC[C@]4(C)C3CC[C@@]21C", "note": "(stereo partly specified)", "Kd": "> 4 mM (inactive)"},
      {"smiles": "O=C(O)c1ccc(N2CCOCC2)nc1", "Kd": "> 4 mM (inactive)"},
      {"smiles": "Cc1cc(C)n(CC(=O)O)n1", "Kd": "> 4 mM (inactive)"},
      {"smiles": "O=C(Cc1cccs1)Nc1nncs1", "Kd": "> 4 mM (inactive)"},
      {"smiles": "NC(=O)C1CCN(C(=O)c2ccco2)CC1", "Kd": "> 4 mM (inactive)"},
      {"smiles": "CC(=O)Oc1c2c(c(CC=C(C)C)c3c1C(=O)C1=C[C@@H]4CC5C(C)(C)OC(C/C=C(\\C)C(=O)O)(C4=O)[C@@]15O3)OC(C)(CCC=C(C)C)C=C2", "note": "(stereo partly specified)", "Kd": "> 4 mM (inactive)"},
      {"smiles": "Cc1nc2ccc(F)cc2cc1C(=O)NCc1ccco1", "Kd": "> 4 mM (inactive)"},
      {"smiles": "COc1ccc(-c2cc(=O)c3c(O)cc(O[C@@H]4O[C@H](CO[C@H]5O[C@H](C)[C@@H](O)[C@H](O)[C@@H]5O)[C@@H](O)[C@H](O)[C@H]4O)cc3o2)cc1O", "Kd": "> 4 mM (inactive)"},
      {"smiles": "COc1ccc(-c2cc(=O)c3c(O)cc(O[C@H]4O[C@H](CO[C@@H]5O[C@@H](C)[C@H](O)[C@@H](O)[C@H]5O)[C@@H](O)[C@H](O)[C@H]4O)cc3o2)cc1", "Kd": "> 4 mM (inactive)"},
      {"smiles": "Nc1nc2ncc(=O)[nH]c2c(=O)[nH]1", "Kd": "> 4 mM (inactive)"},
      {"smiles": "Oc1ccc(C(=S)N2CCOCC2)cc1", "Kd": "> 4 mM (inactive)"}
    ]}
  ]
}
